Marks after values point to notes of the source that are not given here. No end group written: not given here.
Experiment: Example 4 stability of concentrated solutions: HPLC-UV Assay/RS (method 78917)
Format: physicochemical
Conditions: for HPLC-UV Assay / Related Substances Purity / Related Substances Total Impurities: 81.4 mg/mL solution
Protocol: The peptide formulation of SEQ ID NO: 1 dissolved in a saline solution with a pH of 5.0±0.1 was tested for stability under either −20° C. or 40° C. with 75% relative humidity (RH). […]

[1] = 36.7 mg/mL solution, −20° C., 1 Month
[2] = 36.7 mg/mL solution, −20° C., 2 Month
[3] = 36.7 mg/mL solution, −20° C., 3 Month
[4] = 36.7 mg/mL solution, −20° C., 6 Month
[5] = 36.7 mg/mL solution, −20° C., 9 Month
[6] = 72.4 mg/mL solution, 40° C. and 75% RH, 1 Month
[7] = 72.4 mg/mL solution, 40° C. and 75% RH, 2 Month
[8] = 72.4 mg/mL solution, 40° C. and 75% RH, 3 Month
[9] = 72.4 mg/mL solution, 40° C. and 75% RH, 6 Month
[10] = 72.4 mg/mL solution, −20° C., 0 Month
[11] = 72.4 mg/mL solution, −20° C., 1 Month
[12] = 72.4 mg/mL solution, −20° C., 2 Month
[13] = 72.4 mg/mL solution, −20° C., 3 Month
[14] = 72.4 mg/mL solution, −20° C., 6 Month
[15] = 72.4 mg/mL solution, −20° C., 9 Month

Question: Which “SEQ ID NO: 1 % area (Inj-1)” value [1] does the source give for “RRWVRRVRRVWRRVVRVVRRWVRR-NH2 [SEQ ID NO: 1]” here?
Answer: Its value is 99.13%.

Question: What about the “SEQ ID NO: 1 % area (Inj-2)” value [1] of the same substance?
Answer: Its value is 99.12%.

Question: And the “SEQ ID NO: 1 Mean % Area” value [1]?
Answer: Its value is 99.1%.

Question: And the “HPLC-UV Assay/RS % Assay” value [2]?
Answer: The value was 103.2%.

Question: What about the “HPLC-UV Assay/RS % Purity” value [2] of the same substance?
Answer: The value was 99%.

Question: What about the “HPLC-UV Assay/RS % Total Impurities” value [2] of the same substance?
Answer: The value was 0.9%.

Question: And the “HPLC-UV Assay/RS Impurities RRT/%, RRT 1.02” value [2]?
Answer: The value was 1.02/0.9%.

Question: And the “HPLC-UV Assay/RS % Assay” value [3]?
Answer: The value was 101.7%.

Question: And the “HPLC-UV Assay/RS % Purity” value [3]?
Answer: The value was 99%.

Question: What about the “HPLC-UV Assay/RS % Total Impurities” value [3] of the same substance?
Answer: The value was 0.9%.

Question: And the “HPLC-UV Assay/RS Impurities RRT/%, RRT 1.02” value [3]?
Answer: The value was 1.02/0.9%.

Question: What about the “HPLC-UV Assay/RS % Assay” value [4] of the same substance?
Answer: Its value is 99.8%.

Question: What about the “HPLC-UV Assay/RS % Purity” value [4] of the same substance?
Answer: The value was 99%.

Question: And the “HPLC-UV Assay/RS % Total Impurities” value [4]?
Answer: The value was 0.9%.

Question: And the “HPLC-UV Assay/RS Impurities RRT/%, RRT 1.02” value [4]?
Answer: The value was 1.02/0.9%.

Question: And the “HPLC-UV Assay/RS % Assay” value [5]?
Answer: Its value is 96.9%.

Question: And the “HPLC-UV Assay/RS % Purity” value [5]?
Answer: The value was 100%.

Question: What about the “HPLC-UV Assay/RS % Total Impurities” value [5] of the same substance?
Answer: The value was 0.3%.

Question: And the “HPLC-UV Assay/RS Impurities RRT/%, RRT 1.01” value [5]?
Answer: The value was 1.01/0.3%.

Question: What about the “% Purity” value [6] of the same substance?
Answer: The value was 99%.

Question: What about the “% Total Impurities” value [6] of the same substance?
Answer: Its value is 1.1%.

Question: What about the “HPLC-UV % Assay” value [6] of the same substance?
Answer: The value was 95.9%.

Question: And the “RRT 1.02 impurity % area (Inj-1)” value [6]?
Answer: Its value is 0.92 % area.

Question: And the “RRT 1.02 impurity % area (Inj-2)” value [6]?
Answer: Its value is 0.90 % area.

Question: What about the “RRT 1.02 impurity Mean % Area” value [6] of the same substance?
Answer: The value was 0.9 % Area.

Question: What about the “RRT 1.32 impurity % area (Inj-1)” value [6] of the same substance?
Answer: Its value is 0.17 % area.

Question: And the “RRT 1.32 impurity % area (Inj-2)” value [6]?
Answer: The value was 0.18 % area.

Question: What about the “RRT 1.32 impurity Mean % Area” value [6] of the same substance?
Answer: The value was 0.2 % Area.

Question: And the “SEQ ID NO: 1 peak % area (Inj-1)” value [6]?
Answer: The value was 98.91 % area.

Question: What about the “SEQ ID NO: 1 peak % area (Inj-2)” value [6] of the same substance?
Answer: The value was 98.92 % area.

Question: What about the “SEQ ID NO: 1 peak Mean % Area” value [6] of the same substance?
Answer: The value was 98.9 % Area.

Question: And the “% Purity” value [7]?
Answer: Its value is 99%.

Question: And the “% Total Impurities” value [7]?
Answer: The value was 1.5%.

Question: And the “HPLC-UV % Assay” value [7]?
Answer: Its value is 98.4%.

Question: And the “% Purity” value [8]?
Answer: Its value is 98%.

Question: What about the “% Total Impurities” value [8] of the same substance?
Answer: Its value is 1.8%.

Question: And the “HPLC-UV % Assay” value [8]?
Answer: The value was 90.5%.

Question: And the “% Purity” value [9]?
Answer: Its value is 96%.

Question: And the “% Total Impurities” value [9]?
Answer: Its value is 3.6%.

Question: And the “HPLC-UV % Assay” value [9]?
Answer: The value was 87.0* %.

Question: What about the “% Puritvy” value [10] of the same substance?
Answer: The value was 99.1%.

Question: And the “% Total Impurities” value [10]?
Answer: Its value is 1.0%.

Question: What about the “HPLC-UV % Assay” value [10] of the same substance?
Answer: The value was 94.2%.

Question: And the “RRT 1.02 impurity % area (Inj-1)” value [10]?
Answer: Its value is 0.97 % area.

Question: What about the “RRT 1.02 impurity % area (Inj-2)” value [10] of the same substance?
Answer: The value was 0.93 % area.

Question: And the “RRT 1.02 impurity Mean % Area” value [10]?
Answer: Its value is 1.0 % Area.

Question: What about the “SEQ ID NO: 1 peak % area (Inj-1)” value [10] of the same substance?
Answer: The value was 99.03 % area.

Question: What about the “SEQ ID NO: 1 peak % area (Inj-2)” value [10] of the same substance?
Answer: The value was 99.07 % area.

Question: What about the “SEQ ID NO: 1 peak Mean % Area” value [10] of the same substance?
Answer: The value was 99.1 % Area.

Question: And the “% Puritvy” value [11]?
Answer: The value was 99%.

Question: And the “HPLC-UV % Assay” value [11]?
Answer: The value was 97.7%.

Question: What about the “RRT 1.02 impurity % area (Inj-1)” value [11] of the same substance?
Answer: The value was 0.88 % area.

Question: And the “RRT 1.02 impurity % area (Inj-2)” value [11]?
Answer: Its value is 0.87 % area.

Question: What about the “RRT 1.02 impurity Mean % Area” value [11] of the same substance?
Answer: Its value is 0.9 % Area.

Question: And the “SEQ ID NO: 1 peak % area (Inj-1)” value [11]?
Answer: Its value is 99.12 % area.

Question: And the “SEQ ID NO: 1 peak % area (Inj-2)” value [11]?
Answer: The value was 99.13 % area.

Question: What about the “SEQ ID NO: 1 peak Mean % Area” value [11] of the same substance?
Answer: Its value is 99.1 % Area.

Question: What about the “Total % Impurities” value [11] of the same substance?
Answer: Its value is 0.9%.

Question: What about the “% Purity” value [12] of the same substance?
Answer: The value was 99%.

Question: What about the “% Total Impurities” value [12] of the same substance?
Answer: The value was 0.9%.

Question: And the “HPLC-UV % Assay” value [12]?
Answer: The value was 101.1%.

Question: What about the “% Purity” value [13] of the same substance?
Answer: The value was 99%.

Question: What about the “% Total Impurities” value [13] of the same substance?
Answer: Its value is 1.0%.

Question: What about the “HPLC-UV % Assay” value [13] of the same substance?
Answer: Its value is 97.4%.

Question: What about the “% Purity” value [14] of the same substance?
Answer: The value was 99%.

Question: What about the “% Total Impurities” value [14] of the same substance?
Answer: The value was 0.9%.

Question: What about the “HPLC-UV % Assay” value [14] of the same substance?
Answer: The value was 95.1%.

Question: And the “% Purity” value [15]?
Answer: Its value is 100%.

Question: And the “% Total Impurities” value [15]?
Answer: Its value is 0.5%.

Question: And the “HPLC-UV % Assay” value [15]?
Answer: The value was 95.9%.

Question: And the “HPLC-UV Assay” value (40° C. and 75% RH, 1 Month)?
Answer: The value was 102.5 % LC.

Question: And the “Related Substances Purity” value (40° C. and 75% RH, 1 Month)?
Answer: The value was 98%.

Question: What about the “Related Substances Total Impurities” value (40° C. and 75% RH, 1 Month) of the same substance?
Answer: Its value is 1.7%.

Question: What about the “HPLC-UV Assay” value (40° C. and 75% RH, 2 Month) of the same substance?
Answer: The value was 102.6 % LC.

Question: And the “Related Substances Purity” value (40° C. and 75% RH, 2 Month)?
Answer: Its value is 98%.

Question: And the “Related Substances Total Impurities” value (40° C. and 75% RH, 2 Month)?
Answer: Its value is 2.4%.

Question: And the “HPLC-UV Assay” value (40° C. and 75% RH, 3 Month)?
Answer: Its value is 92.0♦ % LC.

Question: And the “Related Substances Purity” value (40° C. and 75% RH, 3 Month)?
Answer: The value was 97%.

Question: And the “Related Substances Total Impurities” value (40° C. and 75% RH, 3 Month)?
Answer: Its value is 2.6%.

Question: What about the “HPLC-UV Assay” value (−20° C., 0 Month) of the same substance?
Answer: Its value is 108.6 % LC.

Question: What about the “Related Substances Purity” value (−20° C., 0 Month) of the same substance?
Answer: Its value is 99%.

Question: What about the “Related Substances Total Impurities” value (−20° C., 0 Month) of the same substance?
Answer: Its value is 0.9%.

Question: And the “HPLC-UV Assay” value (−20° C., 1 Month)?
Answer: Its value is 103.8 % LC.

Question: What about the “Related Substances Purity” value (−20° C., 1 Month) of the same substance?
Answer: Its value is 99%.

Question: And the “Related Substances Total Impurities” value (−20° C., 1 Month)?
Answer: The value was 1.0%.

Question: And the “HPLC-UV Assay” value (−20° C., 2 Month)?
Answer: Its value is 107.8 % LC.

Question: What about the “Related Substances Purity” value (−20° C., 2 Month) of the same substance?
Answer: The value was 99%.

Question: And the “Related Substances Total Impurities” value (−20° C., 2 Month)?
Answer: The value was 0.9%.

Question: What about the “HPLC-UV Assay” value (−20° C., 3 Month) of the same substance?
Answer: Its value is 104.7 % LC.

Question: What about the “Related Substances Purity” value (−20° C., 3 Month) of the same substance?
Answer: The value was 100%.

Question: What about the “Related Substances Total Impurities” value (−20° C., 3 Month) of the same substance?
Answer: Its value is 0.3%.

From patent US20230106943A1, “ENGINEERED ANTIMICROBIAL PEPTIDES AND USAGE THEREOF” (Peptilogics, Inc., priority 2021, published 2023)
